Data from US20250049036A1 (priority 2021, published 2025).

How the values were obtained:
Phytophthora infestans [1] = assay: whole plant or invertebrate; assay type: in vivo, Phytophthora infestans on tomato; settings: in Solanum lycopersicum, read-out: control (efficacy, disease severity) compared to the untreated check
Botrytis cinerea [2] = assay: Botrytis cinerea test on tomato, preventive, greenhouse; assay type: in vivo; settings: preventive spray on bean/chili plants (heading: tomato), inoculated one day after treatment, read-out: control (efficacy, disease severity) compared to the untreated check
Phakopsora pachyrhizi = Phakopsora pachyrhizi test on soybean, preventive, greenhouse; assay type: in vivo; settings: preventive spray on soybean, inoculated one day after treatment, read-out: control (efficacy, disease severity) compared to the untreated check
Method in brief: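 Preventive protocol: plants inoculated with a 2×10^5 P. pachyrhizi conidial suspension one day after spray application at the stated rate, then incubated at 22-24 °C and 80-90% RH. Compound was applied from 2% DMSO/acetone diluted in emulsified water.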

Pyricularia oryzae = assay: microbe, parasite or virus in culture; assay type: cell-based; settings: 168 h, read-out: control compared to the untreated check
Botrytis cinerea [3] = assay: Botrytis cinerea (gray mold) mycelial radial growth on potato dextrose agar; assay type: cell-based; settings: 168 h, 22° C., seven days, read-out: control compared to the untreated check
Protocol: The compounds were dissolved in 0.3% dimethyl sulfoxide and then added to potato dextrose agar medium just prior to dispensing it into petri dishes. 5 mL medium, with the compound in the desired concentration, was dispensed into 60 mm sterile petri-plates. After solidification, each plate was seeded with a 5 mm size mycelial disc taken from the periphery of an actively growing virulent culture plate. The plates were incubated in growth chambers at 22° C. temperature and 90% relative humidity for seven days and the radial growth was measured and compared to the one of the untreated control.

Parastagonospora nodorum = Parastagonospora nodorum (PARANO) spore growth inhibition in liquid medium, 96-well microtiter plate, OD 600; assay type: cell-based; settings: spore suspension in PDB liquid medium, 18° C., 5-6 days, OD at 600, read-out: control compared to the untreated check
Method in brief: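 Read-out is percent growth inhibition from OD at 600 after 5-6 days at 18° C. Compounds, dissolved in DMSO, were diluted in potato dextrose broth and combined in equal volume with a 10^5 spores/ml suspension of PARANO.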

Venturia Inequalis = assay: Venturia inequalis (VENTIN) spore growth inhibition in liquid medium, 96-well microtiter plate, OD 600; assay type: cell-based; settings: spore suspension in PDB liquid medium, 18° C., 15-18 days, OD at 600, read-out: control compared to the untreated check
Protocol: Potato dextrose (PDB) liquid medium containing a VENTIN (10^5 spores/ml) spore suspension was prepared. For the inhibition assay, each test compound was solved in dimethyl sulfoxide. 100 μl of the test compound in media-solution was added to a 96-well microtiter plate, consequently, the same volume (100 μl) of spore suspension was added to the well making the final test concentrations and the treated plate was incubated at 18° C. for 15-18 days. The growth inhibition was evaluated by measuring the OD at 600. Percent inhibition was calculated with the below formula: […]

Botrytis cinerea [4] = assay: Botrytis cinerea liq. (BOTRCI) spore growth inhibition in liquid medium, 96-well microtiter plate, OD 405 nm; assay type: cell-based; settings: spore suspension in YBA liquid medium, 22° C., 5-6 days, OD at 405 nm, read-out: control compared to the untreated check
Protocol: Yeast bacterial peptone and sodium acetate (YBA) liquid medium containing a BOTRCI (10^4 spores/ml) spore suspension was prepared. For the inhibition assay, each test compound was solved in dimethyl sulfoxide. 100 μl of the test compound in media-solution was added to a 96-well microtiter plate, consequently, the same volume (100 μl) of spore suspension was added to the well making the final test concentrations and the plate was incubated at 22° C. for 5-6 days. The growth inhibition was evaluated by measuring the OD at 405 nm. Percent inhibition was calculated with the below formula:
Where T=treatment, C=control, and B=blank

Phytophthora infestans [5] = assay: microbe, parasite or virus in culture; assay type: cell-based; settings: 168 h, read-out: control compared to the untreated check
Colletotrichum capsici = Colletotrichum capsici (anthracnose) mycelial radial growth on potato dextrose agar; assay type: cell-based; settings: Colletotrichum truncatum, 168 h, 25° C., seven days, read-out: control compared to the untreated check
Method in brief: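 Compounds in 0.3% DMSO were mixed into potato dextrose agar, and each plate was seeded with a 5 mm mycelial disc from an actively growing culture. Plates were incubated at 25° C and 60% relative humidity for seven days. Radial growth was compared with untreated control.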

Cc1nc2c(ccn2C)cc1C(=O)NC(C)(C)Cc1ccccc1F [Compound 38, N-(1-(2-fluorophenyl)-2-methylpropan-2-yl)-1,6-dimethyl-1H-pyrrolo[2,3-b]pyridine-5-carboxamide]
≥ 70%: pest or weed control at 500 ppm (Phytophthora infestans [1]) | pest or weed control at 500 ppm (Botrytis cinerea [2]) | pest or weed control at 500 ppm (Phakopsora pachyrhizi) | inhibition of growth at 300 ppm (Pyricularia oryzae)

Cc1nc2c(ccn2C)cc1C(=O)NC(C)(C)C(C)c1ccccc1Cl (stereo not drawn) [Compound 40, N-(3-(2-chlorophenyl)-2-methylbutan-2-yl)-1,6-dimethyl-1H-pyrrolo[2,3-b]pyridine-5-carboxamide]
≥ 70%: pest or weed control at 500 ppm (Phytophthora infestans [1]) | inhibition of growth at 300 ppm (Botrytis cinerea [3]) | inhibition of growth at 300 ppm (Parastagonospora nodorum) | pest or weed control at 500 ppm (Phakopsora pachyrhizi) | inhibition of growth at 300 ppm (Pyricularia oryzae)

Cn1ccc2cc(C(=O)NC(C)(C)Cc3ccc(Cl)c(F)c3)cnc21 [Compound 42, N-(1-(4-chloro-3-fluorophenyl)-2-methylpropan-2-yl)-1-methyl-1H-pyrrolo[2,3-b]pyridine-5-carboxamide]
≥ 70%: pest or weed control at 500 ppm (Phytophthora infestans [1]) | inhibition of growth at 300 ppm (Parastagonospora nodorum) | pest or weed control at 500 ppm (Phakopsora pachyrhizi) | inhibition of growth at 300 ppm (Pyricularia oryzae)

Cn1ccc2cc(C(=O)NC(C)(C)Cc3cccc(Br)c3)cnc21 [Compound 48, N-(1-(3-bromophenyl)-2-methylpropan-2-yl)-1-methyl-1H-pyrrolo[2,3-b]pyridine-5-carboxamide]
≥ 70%: pest or weed control at 500 ppm (Phytophthora infestans [1]) | inhibition of growth at 300 ppm (Parastagonospora nodorum) | pest or weed control at 500 ppm (Phakopsora pachyrhizi) | inhibition of growth at 300 ppm (Pyricularia oryzae)

COc1ccccc1CC(C)(C)NC(=O)c1cnc2c(ccn2C)c1 [Compound 49, N-(1-(2-methoxyphenyl)-2-methylpropan-2-yl)-1-methyl-1H-pyrrolo[2,3-b]pyridine-5-carboxamide]
≥ 70%: inhibition of growth at 300 ppm (Venturia Inequalis) | pest or weed control at 500 ppm (Phakopsora pachyrhizi)

CC(C)CC(C)(Cc1ccccc1)NC(=O)c1cnc2c(c1)c(C1CC1)cn2C (stereo not drawn) [Compound 55, 3-cyclopropyl-N-(2,4-dimethyl-1-phenylpentan-2-yl)-1-methyl-1H-pyrrolo[2,3-b]pyridine-5-carboxamide]
≥ 70%: inhibition of growth at 300 ppm (Botrytis cinerea [3]) | pest or weed control at 500 ppm (Botrytis cinerea [2]) | inhibition of growth at 300 ppm (Botrytis cinerea [4])

CC(c1ccccc1Cl)C(C)(C)NC(=O)c1cnc2c(c1)c(F)cn2C (stereo not drawn) [Compound 71, N-(3-(2-chlorophenyl)-2-methylbutan-2-yl)-3-fluoro-1-methyl-1H-pyrrolo[2,3-b]pyridine-5-carboxamide]
≥ 70%: pest or weed control at 500 ppm (Phytophthora infestans [1]) | pest or weed control at 500 ppm (Phakopsora pachyrhizi) | inhibition of growth at 300 ppm (Pyricularia oryzae)

CC(C)CC(C)(Cc1ccccc1)NC(=O)c1cnc2[nH]c(=O)oc2c1 (stereo not drawn) [Compound 98, N-(2,4-dimethyl-1-phenylpentan-2-yl)-2-oxo-2,3-dihydrooxazolo[4,5-b] pyridine-6-carboxamide]
≥ 70%: inhibition of growth at 300 ppm (Botrytis cinerea [3]) | pest or weed control at 500 ppm (Botrytis cinerea [2]) | inhibition of growth at 300 ppm (Botrytis cinerea [4]) | inhibition of growth at 300 ppm (Phytophthora infestans [5]) | inhibition of growth at 300 ppm (Pyricularia oryzae)

Cc1cc2cc(C(=O)NC(C)(C)C(C)(C)c3ccccc3)cnc2n1C [Compound 100, N-(2,3-dimethyl-3-phenylbutan-2-yl)-1,2-dimethyl-1H-pyrrolo[2,3-b]pyridine-5-carboxamide]
≥ 70%: inhibition of growth at 300 ppm (Botrytis cinerea [3]) | pest or weed control at 500 ppm (Botrytis cinerea [2]) | inhibition of growth at 300 ppm (Botrytis cinerea [4]) | inhibition of growth at 300 ppm (Parastagonospora nodorum) | inhibition of growth at 300 ppm (Pyricularia oryzae)

CC(C)(NC(=O)c1cnc2ccsc2c1)C(O)Cc1ccccc1 (stereo not drawn) [Compound 105, N-(3-hydroxy-2-methyl-4-phenylbutan-2-yl)thieno[3,2-b] pyridine-6-carboxamide]
≥ 70%: inhibition of growth at 300 ppm (Botrytis cinerea [3]) | inhibition of growth at 300 ppm (Botrytis cinerea [4]) | inhibition of growth at 300 ppm (Parastagonospora nodorum) | inhibition of growth at 300 ppm (Phytophthora infestans [5])

CC(C)(C#N)NC(=O)c1cnc2ccsc2c1 [Compound 106, N-(2-cyanopropan-2-yl)thieno[3,2-b] pyridine-6-carboxamide]
≥ 70%: inhibition of growth at 300 ppm (Botrytis cinerea [3]) | pest or weed control at 500 ppm (Botrytis cinerea [2]) | inhibition of growth at 300 ppm (Botrytis cinerea [4]) | inhibition of growth at 300 ppm (Parastagonospora nodorum) | pest or weed control at 500 ppm (Phakopsora pachyrhizi)

CC(C)(COC(=O)c1cccc(F)c1)NC(=O)c1cnc2c(c1)CCC2 [Compound 145, 2-(6,7-dihydro-5H-cyclopenta[b]pyridine-3-carboxamido)-2-methylpropyl 3-fluorobenzoate]
≥ 70%: pest or weed control at 500 ppm (Phytophthora infestans [1])

CC(C)(COC(=O)c1cccc(F)c1)NC(=O)c1cnc2[nH]ccc2c1 [Compound 146, 2-methyl-2-(1H-pyrrolo[2,3-b]pyridine-5-carboxamido)propyl 3-fluorobenzoate]
≥ 70%: inhibition of growth at 300 ppm (Venturia Inequalis) | pest or weed control at 500 ppm (Phakopsora pachyrhizi) | inhibition of growth at 300 ppm (Phytophthora infestans [5])

C=C(C)CC(C)(COc1ccccc1F)NC(=O)c1cnc2c(c1)CCC2 (stereo not drawn) [Compound 160, N-(1-(2-fluorophenoxy)-2,4-dimethylpent-4-en-2-yl)-6,7-dihydro-5H-cyclopenta[b]pyridine-3-carboxamide]
≥ 70%: inhibition of growth at 300 ppm (Botrytis cinerea [3]) | inhibition of growth at 300 ppm (Colletotrichum capsici) | inhibition of growth at 300 ppm (Parastagonospora nodorum) | inhibition of growth at 300 ppm (Venturia Inequalis)

CC(C)(COC(=O)c1ccccc1C(F)(F)F)NC(=O)c1cnc2ccsc2c1 [Compound 161, 2-methyl-2-(thieno[3,2-b]pyridine-6-carboxamido)propyl 2-(trifluoromethyl)benzoate]
≥ 70%: inhibition of growth at 300 ppm (Venturia Inequalis) | inhibition of growth at 300 ppm (Pyricularia oryzae)

Cn1ccc2cc(C(=O)NC(C)(C)COC(=O)c3ccccc3C(F)(F)F)cnc21 [Compound 167, 2-methyl-2-(1-methyl-1H-pyrrolo[2,3-b]pyridine-5-carboxamido)propyl 2-(trifluoromethyl)benzoate]
≥ 70%: inhibition of growth at 300 ppm (Venturia Inequalis)

Cn1ccc2cc(C(=O)NC(C)(C)COCc3ccccc3F)cnc21 [Compound 187, N-(1-((2-fluorobenzyl)oxy)-2-methylpropan-2-yl)-1-methyl-1H-pyrrolo[2,3-b]pyridine-5-carboxamide]
≥ 70%: inhibition of growth at 300 ppm (Botrytis cinerea [3]) | inhibition of growth at 300 ppm (Colletotrichum capsici) | inhibition of growth at 300 ppm (Botrytis cinerea [4]) | inhibition of growth at 300 ppm (Parastagonospora nodorum)

CC(C)(COCc1ccccc1F)NC(=O)c1cnc2ccsc2c1 [Compound 189]
≥ 70%: inhibition of growth at 300 ppm (Botrytis cinerea [3]) | inhibition of growth at 300 ppm (Botrytis cinerea [4]) | inhibition of growth at 300 ppm (Pyricularia oryzae)

CC(C)(COCc1ccccc1F)NC(=O)c1cnc2c(c1)CCC2 [Compound 190, N-(1-((2-fluorobenzyl)oxy)-2-methylpropan-2-yl)-6,7-dihydro-5H-cyclopenta[b]pyridine-3-carboxamide]
≥ 70%: inhibition of growth at 300 ppm (Botrytis cinerea [3]) | inhibition of growth at 300 ppm (Colletotrichum capsici) | inhibition of growth at 300 ppm (Botrytis cinerea [4]) | inhibition of growth at 300 ppm (Parastagonospora nodorum)

COc1nc2c(cc1C(=O)NC1(c3ccccc3)CC1)CCC2 [Compound 252, 2-methoxy-N-(1-phenylcyclopropyl)-6,7-dihydro-5H-cyclopenta[b]pyridine-3-carboxamide]
≥ 70%: inhibition of growth at 300 ppm (Botrytis cinerea [3]) | inhibition of growth at 300 ppm (Colletotrichum capsici) | inhibition of growth at 300 ppm (Botrytis cinerea [4]) | inhibition of growth at 300 ppm (Parastagonospora nodorum) | inhibition of growth at 300 ppm (Phytophthora infestans [5])

CON(C(=O)c1cc2c(nc1Cl)CCC2)C(C)Cc1ccccc1F (stereo not drawn) [Compound 254, 2-chloro-N-(1-(2-fluorophenyl)propan-2-yl)-N-methoxy-6,7-dihydro-5H-cyclopenta[b]pyridine-3-carboxamide]
≥ 70%: inhibition of growth at 300 ppm (Botrytis cinerea [3]) | inhibition of growth at 300 ppm (Botrytis cinerea [4]) | inhibition of growth at 300 ppm (Parastagonospora nodorum) | inhibition of growth at 300 ppm (Pyricularia oryzae)
